Experimental data reported in the NIST ThermoML archive (doi:10.1016/j.jct.2006.04.009).
Numbers after ± are expanded uncertainties.

Conditions: Liquid

| SMILES | vapor or sublimation pressure (313.15 K) [kPa] | vapor or sublimation pressure (323.15 K) [kPa] | vapor or sublimation pressure (333.15 K) [kPa] | vapor or sublimation pressure (343.15 K) [kPa] | vapor or sublimation pressure (353.15 K) [kPa] | vapor or sublimation pressure (363.15 K) [kPa] |
| --- | --- | --- | --- | --- | --- | --- |
| COC [dimethyl ether] | 887 ± 10 | 1147 ± 13 | 1451 ± 17 | 1817 ± 21 | 2251 ± 26 | 2738 ± 32 |
| FC(F)C(F)(F)F [pentafluoroethane] | 2009 ± 24 | 2537 ± 30 | 3170 ± 37 | – | – | – |
